The values that follow come from paper PMC8315922, “In Vitro Identification and In Vivo Confirmation of Inhibitors for Sweet Potato Chlorotic Stunt Virus RNA Silencing Suppressor, a Viral RNase III” (Journal of Virology, 2021).

Broadly, the IC50 is the concentration needed to halve the response being measured.

Data set [1] has as its target CSR3 (RNase III of SPCSV) (Sweet potato chlorotic stunt virus, UniProt Q8JJW8). The data set is described as follows: Kinetic-based FRET dose-response assay (IC50, DSS). The class given is biochemical. The note with it: for DSS Comm 1 / DSS FIMM1 / DSS FIMM 2: drug sensitivity score; for DSS Comm 1: repeat Comm 1; for DSS FIMM1: repeat FIMM 1; for DSS FIMM 2: repeat FIMM 2. The protocol: A dose-response assay with six concentrations (1.25 nM to 50 μM) was carried out in three independent experiments, which included two tests with the 112 selected FIMM compounds (i.e., compounds prepared by the HTB-FIMM) and one test using the newly ordered commercial compounds (99 of the 112 compounds, i.e., compounds prepared by a second supplier). A dose-response curve was generated for each compound based on PI values as a function of the concentration.
The HTS assay was designed based on FRET using a 22-bp siRNA (forward sequence, […]; reverse sequence, […]) with a 2-nucleotide (nt) 3′ overhang labeled with the fluorescent dye 6-carboxyfluorescein (FAM) and a black hole quencher (BHQ1) on the sense strand (Metabion, Munich, Germany). Screening was initially carried out at one concentration (10 μM) in a 20-μl reaction buffer. […] All reaction mixtures contained 50 nM CSR3 and 375 nM labeled siRNA in 384-well black flat-bottom microplates (Corning, NY, USA) and were prepared using a BioTek MultiFlo FX dispenser with single-channel random access dispenser cassettes (BioTek, Winooski, VT, USA). The plates were read with a PHERAstar FS reader (BMG Labtech, Ortenberg, Germany).
(§1) For HTS, the activity of CSR3 was calculated by measuring the change in fluorescence as a function of the reaction time using MARS Data Analysis software (BMG Labtech). To evaluate the CSR3 inhibition efficiency of individual compounds, the PI of each compound was calculated using the slope values for the sample, positive control, and negative control according to the following equation: PI = 100 × [1 − (sample − positive)/(negative − positive)]%. IC50 and DSS values were calculated using concentration-specific PI values according to a previous study ([31]). Relative gene expression was calculated using the classical 2^−ΔΔ^CT method ([63]).

Another data set concerns the target T1, CSR3 (Sweet potato chlorotic stunt virus, UniProt Q8JJW8).
T1 sequence (Q8JJW8 1-228): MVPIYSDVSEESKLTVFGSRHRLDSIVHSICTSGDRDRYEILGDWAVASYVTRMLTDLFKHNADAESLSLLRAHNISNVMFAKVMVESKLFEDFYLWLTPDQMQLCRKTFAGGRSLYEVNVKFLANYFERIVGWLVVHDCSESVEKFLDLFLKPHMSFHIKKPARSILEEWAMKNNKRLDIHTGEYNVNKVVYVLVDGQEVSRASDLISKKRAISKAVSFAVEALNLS
Briefly: Binding affinity assay using MST. The note with it: for Comments: MST behaviour of compound (V-shape response, fluorescence quenching, interference, aggregator); for Binding (Yes/No): MST binding call; for Binding (Yes/No) / Response Amplitude: Table S4; for Response Amplitude: MST response amplitude. On the procedure: Binding affinity assays were first carried out with the 99 commercial compounds using the MST method.
The labeled-protein solution containing 500 nM proteins and 40 nM dye was prepared in PBS buffer with 2% dimethyl sulfoxide (DMSO) for the assay. The 12 concentrations for each compound were obtained by 2-fold serial dilutions (0.2 μM to 400 μM). […] Two independent experiments were carried out in premium coated capillaries (NanoTemper, Munich, Germany) using a Monolith NT.Automated instrument (NanoTemper) with the power set at high (80%), the light-emitting diode (LED) power (pico red) set at 5%, and the on-time set at 20 s. The dissociation constant (Kd) was determined using the MO.Affinity Analysis program (NanoTemper).

The next data set concerns SPFMV. The data set is described as follows: Virus accumulation (RT-qPCR of coat protein RNA) in coinfected sweetpotato plants grown in culture medium: SPFMV. The class given is in vivo, Sweet potato feathery mottle virus. The conditions noted are these: for SPFMV_FC (fold change of viral accumulation): 50 μM in culture medium, 28 days, relative to DMSO control; for SPFMV accumulation reduced / viral titer SPFMV (log2 fold change relative to controls): plants in culture medium, 50 μM. The protocol: (§2) Since tests in culture medium consume smaller amounts of compounds and can be carried out under relatively controlled conditions, sweetpotato plants coinfected with SPCSV and SPFMV were grown in medium supplemented with one of the 30 inhibitor candidates at a concentration of 50 μM. Their effects on plant growth were monitored by imaging the plants once a week. […] In addition, virus accumulation was quantified by measuring the relative abundance of the transcripts encoding viral coat proteins using RT-qPCR ([32]). The effect of individual compounds on virus accumulation was estimated by comparing treated and control plants.
(§3) Sweetpotato plants cultivar 'Huachano' (accession CIP420065) were side-graft inoculated with both SPFMV (East African strain isolate Nam1) and SPCSV-Ug (East African serotype 2) as described previously ([62]). Plantlets were propagated by taking single-node stems grown in a plant culture medium ([33]). Next, plantlets with newly formed roots were transferred to glass tubes (18 by 150 mm) containing 10 ml of medium supplemented with either 50 μM compound (diluted in DMSO; final DMSO concentration, 0.1%) or only 0.1% DMSO as a control. For plant experiments in soil, plantlets were transferred to pots (6 by 6 by 10 cm) filled with a mixture of sand, humus, and washed soil. After 1 week, plants were treated by foliar spraying using either individual compounds at a single concentration (10 μM) (treatment) or water (control/mock) twice a week for 1 month. All plants were grown at 22°C with 60% humidity and a 16-h light/8-h dark photoperiod for 28 days in culture medium and for 41 days in soil. The Finnish National Plant Phenotyping Infrastructure (NaPPI) was used to monitor plant viral disease symptoms as described in our previous study ([33]). Four compounds were tested with the phenotyping platform in two independent batches, each of which included five biological replicates.
(§4) Leaf samples were collected from plants grown in culture medium or soil for 28 or 41 days, respectively, and frozen in liquid nitrogen. Total RNA was extracted using the Spectrum plant total RNA kit (Sigma-Aldrich). First-strand cDNA was synthesized using the Transcriptor first-strand cDNA synthesis kit (Roche, Basel, Switzerland). […] All RT-qPCR experiments were conducted in triplicate on three and five biological replicates from plants grown in culture medium and soil, respectively. The primer list can be found in our previous study ([33]).
as §1

A further data set has as its system SPCSV. Briefly: Virus accumulation (RT-qPCR of coat protein RNA) in coinfected sweetpotato plants grown in culture medium: SPCSV. The class given is in vivo, Sweet potato chlorotic stunt virus. The note with it: for SPCSV_FC (fold change of viral accumulation): 50 μM in culture medium, 28 days, relative to DMSO control; for SPCSV accumulation reduced / viral titer SPCSV (log2 fold change relative to controls): plants in culture medium, 50 μM. The protocol:
as §2, §3, §4, §1
In general terms: Quantitative PCR measures a nucleic acid by following its amplification.

The subject of a further data set is sweetpotato plants. The conditions noted are these: 50 μM in culture medium.
Where [2] appears, read: repeat Comm 1 (commercial compounds), 1.25 nM to 50 μM, unit inferred, numbers match nM, read-out: IC50 Comm 1.
[3] abbreviates: repeat FIMM 1 (FIMM library compounds), 1.25 nM to 50 μM, unit inferred, numbers match nM (cf. Fig 5A), read-out: IC50 FIMM1.
[4] abbreviates: repeat FIMM 2 (FIMM library compounds), 1.25 nM to 50 μM, unit inferred, numbers match nM, read-out: IC50 FIMM 2.
Setting [5] is: kinetic-based HTS, Fig 5A summary.
[6] abbreviates: read-out: IC50 Comm 1, repeat Comm 1 (commercial compounds), 1.25 nM to 50 μM, unit inferred, numbers match nM.
The mark [7] stands for this setting: read-out: IC50 FIMM 2, repeat FIMM 2 (FIMM library compounds), 1.25 nM to 50 μM, unit inferred, numbers match nM.

The structures appear in SMILES notation. Where two headings read alike, the source gives them in different places.

Consider `O=C1c2c(O)ccc(O)c2C(=O)c2c(NCCNCCO)ccc(NCCNCCO)c21` [FIMM000490], for which, in data set [1], the “DSS Comm 1” value is recorded as 16.9, the “DSS FIMM1” value came out at 14.9 and the “DSS FIMM 2” value turned out to be 15.5. Moreover, the IC50 in data set [1] (setting [2]) came to 1200 nM. Moreover, the IC50 in data set [1] (setting [3]) worked out at 1810 nM. Further, the IC50 in data set [1] (setting [4]) turned out to be 1640 nM. Also, on CSR3, the Comments result is given as “Interference”, the “Binding (Yes/No)” value is listed as “No” and the “Response Amplitude” value turned out to be 0. For the same compound, the “SPFMV_FC (fold change of viral accumulation)” value with SPFMV is reported as 1.747. For the same compound, in the data set on SPCSV, the “SPCSV_FC (fold change of viral accumulation)” value is on record as 0.2453. In the data set on sweetpotato plants, the Toxicity entry is reported as “no”.
In the case of `COc1cc(C=C2C(=O)NC(=S)NC2=O)ccc1OCc1ccccc1[N+](=O)[O-]` [FIMM101864], in data set [1], the “DSS Comm 1” value is 6.4, the “DSS FIMM1” value was found to be 11.2 and the “DSS FIMM 2” value turned out to be 8. The half-inhibitory concentration (IC50) in data set [1] (setting [2]) came out at 1690 nM. For the same compound, the IC50 in data set [1] (setting [3]) was determined as 3850 nM. Moreover, the IC50 in data set [1] (setting [4]) is 7240 nM. Moreover, on CSR3, the Comments entry is on record as “Aggregator”, the “Binding (Yes/No)” value is given as “No” and the “Response Amplitude” value was 0. The “SPFMV_FC (fold change of viral accumulation)” value in the data set on SPFMV is reported as 1.376. In addition, in the data set with SPCSV, the “SPCSV_FC (fold change of viral accumulation)” value worked out at 0.5034.
In the case of `O=C(O)c1ccc(C2Nc3c(Br)cccc3C3C=CCC32)cc1` (centres unmarked) [FIMM022230], in data set [1], the “DSS Comm 1” value turned out to be 5.4, the “DSS FIMM1” value is given as 13.8 and the “DSS FIMM 2” value was found to be 14.3. In data set [1] (setting [5]), this compound returned a DSS of 13.8 and an IC50 of roughly 1860 nM. In data set [1] (setting [6]), the IC50 worked out at 12000 nM. Moreover, in data set [1] (setting [7]), the IC50 came out at 1550 nM. The 50% inhibitory concentration (IC50) in data set [1] (setting [3]) came out at 1860 nM. On CSR3, the “Binding (Yes/No)” value is “No” and the “Response Amplitude” value is 68. For the same compound, in the data set on SPFMV, the “SPFMV_FC (fold change of viral accumulation)” value amounted to 0.2613, the SPFMV accumulation reduced was roughly 4 fold and the “viral titer SPFMV (log2 fold change relative to controls)” value is listed as −1.93. In addition, in the data set with SPCSV, the “SPCSV_FC (fold change of viral accumulation)” value was found to be 0.08458, the SPCSV accumulation reduced entry is given as “approximately 8 fold” and the “viral titer SPCSV (log2 fold change relative to controls)” value is −3.56. In the data set with sweetpotato plants, the Toxicity result is “no”.
On to `Cc1ccc(C2Nc3ccc(C(=O)O)cc3C3C=CCC32)cc1` (centres unmarked) [FIMM031755], for which, in data set [1], the “DSS Comm 1” value was 7.7, the “DSS FIMM1” value is 15.9 and the “DSS FIMM 2” value came out at 16.2. In addition, in data set [1] (setting [5]), the DSS was 15.9 and the IC50 is roughly 1270 nM. Also, the IC50 in data set [1] (setting [6]) was 7380 nM. The concentration for half-maximal inhibition (IC50) in data set [1] (setting [7]) is 1240 nM. Further, on CSR3, the “Binding (Yes/No)” value is listed as “No” and the “Response Amplitude” value came out at 0. Further, in the data set with SPFMV, the “SPFMV_FC (fold change of viral accumulation)” value came out at 0.5653, the SPFMV accumulation reduced was roughly 2 fold and the “viral titer SPFMV (log2 fold change relative to controls)” value is reported as −0.82. In the data set on SPCSV, the “SPCSV_FC (fold change of viral accumulation)” value amounted to 0.5163, the SPCSV accumulation reduced is listed as roughly 2 fold and the “viral titer SPCSV (log2 fold change relative to controls)” value is given as −0.95. In the data set with sweetpotato plants, the Toxicity result is recorded as “no”.
